{"source": "ChEMBL document CHEMBL3272007", "about": "“Antiarrhythmics. 2. Synthesis and antiarrhythmic activity of N-(piperidylalkyl)trifluoroethoxybenzamides” (1977)"}
{"tested_on": "Mus musculus", "assay": "Antiarrhythmic activity in po dosed Swiss-Webster mouse assessed as protection against chloroform-induced ventricular fibrillation administered in 4% acacia", "assay_type": "functional", "conditions": "Heart", "units": {"ED50": "µmol/kg"}}
{"smiles": "CCN1CCCC1CNC(=O)c1cc(OCC(F)(F)F)ccc1OCC(F)(F)F", "note": "(centres undefined)", "ED50": 70}
{"smiles": "O=C(NC1CCNCC1)c1cc(OCC(F)(F)F)ccc1OCC(F)(F)F", "ED50": 144}
{"smiles": "Cc1ccc(OCC(F)(F)F)c(C(=O)NCC2CCCCN2)c1", "note": "(centres undefined)", "ED50": "> 600"}
{"smiles": "O=C(c1cc(OCC(F)(F)F)ccc1OCC(F)(F)F)N(CC1CCCCN1)C1CCCCC1", "note": "(centres undefined)", "ED50": 36}
{"smiles": "CC1CCCC(CN(C)C(=O)c2cc(OCC(F)(F)F)ccc2OCC(F)(F)F)N1", "note": "(centres undefined)", "ED50": 9}
{"smiles": "O=C(NCC1CCCCN1)c1cc(F)ccc1OCC(F)(F)F", "note": "(centres undefined)", "ED50": 270}
{"smiles": "CCN(CC1CCCCN1)C(=O)c1cc(OCC(F)(F)F)ccc1OCC(F)(F)F", "note": "(centres undefined)", "ED50": "< 2"}
{"smiles": "CC[N+]1(C)CCCCC1CNC(=O)c1cc(OCC(F)(F)F)ccc1OCC(F)(F)F", "note": "(centres undefined)", "ED50": "> 380"}
{"smiles": "O=C(c1cc(OCC(F)(F)F)ccc1OCC(F)(F)F)N1CCN2CCCCC2C1", "note": "(centres undefined)", "ED50": "> 510"}
{"smiles": "CCN(CC1CCCN1C)C(=O)c1cc(OCC(F)(F)F)ccc1OCC(F)(F)F", "note": "(centres undefined)", "ED50": 29}
{"smiles": "O=C(NCC1CCCCN1)c1cccc(OCC(F)(F)F)c1", "note": "(centres undefined)", "ED50": 76}
{"smiles": "CCN(CC)CCNC(=O)c1ccc(N)cc1", "note": "[PROCAINAMIDE]", "ED50": 1030}
{"smiles": "C=C[C@H]1CN2CC[C@H]1C[C@@H]2[C@@H](O)c1ccnc2ccc(OC)cc12", "note": "[QUINIDINE]", "ED50": 217}
{"smiles": "O=C(NCC1CCCCN1)c1ccc(OCC(F)(F)F)cc1", "note": "(centres undefined)", "ED50": 190}
{"smiles": "O=C(NCC1CCc2ccccc2N1)c1cc(OCC(F)(F)F)ccc1OCC(F)(F)F", "note": "(centres undefined)", "ED50": "> 450"}
{"smiles": "O=C(NCC1CCCCN1)c1cc(OCC(F)(F)F)cc(OCC(F)(F)F)c1", "note": "(centres undefined)", "ED50": 388}
{"smiles": "O=C(NCC1CCC2CCCCC2N1)c1cc(OCC(F)(F)F)ccc1OCC(F)(F)F", "note": "(centres undefined)", "ED50": 27}
{"smiles": "O=C(NCC1CCCCN1)c1ccc(OCC(F)(F)F)cc1OCC(F)(F)F", "note": "(centres undefined)", "ED50": 244}
{"smiles": "CCN1CCCCC1CNC(=O)c1cc(OCC(F)(F)F)ccc1OCC(F)(F)F", "note": "(centres undefined)", "ED50": 102}
{"smiles": "CCCCN(CC1CCCCN1)C(=O)c1cc(OCC(F)(F)F)ccc1OCC(F)(F)F", "note": "(centres undefined)", "ED50": 32}
{"smiles": "O=C(NCC1CCCCN1)c1c(OCC(F)(F)F)cc(OCC(F)(F)F)cc1OCC(F)(F)F", "note": "(centres undefined)", "ED50": 95}
{"smiles": "O=C(NCC1CCCCN1)c1ccc(OCC(F)(F)F)c(OCC(F)(F)F)c1", "note": "(centres undefined)", "ED50": 277}
{"smiles": "O=C(NCC1CCCCN1)c1ccccc1OCC(F)(F)F", "note": "(centres undefined)", "ED50": 283}
{"smiles": "O=C(NCC1CCCCN1)c1cc(Cl)ccc1OCC(F)(F)F", "note": "(centres undefined)", "ED50": 230}
{"smiles": "CC1CCCC(CNC(=O)c2cc(OCC(F)(F)F)ccc2OCC(F)(F)F)N1", "note": "(centres undefined)", "ED50": 22}
{"smiles": "C[N+]1(C)CCCCC1CNC(=O)c1cc(OCC(F)(F)F)ccc1OCC(F)(F)F", "note": "(centres undefined)", "ED50": "> 395"}
{"smiles": "O=C(NC1CCCNC1)c1cc(OCC(F)(F)F)ccc1OCC(F)(F)F", "note": "(centres undefined)", "ED50": 57}
{"smiles": "CN1CCCCC1CNC(=O)c1cc(OCC(F)(F)F)ccc1OCC(F)(F)F", "note": "(centres undefined)", "ED50": 44}
{"smiles": "CN(CC1CCCCN1)C(=O)c1cc(OCC(F)(F)F)ccc1OCC(F)(F)F", "note": "(centres undefined)", "ED50": 24}
{"smiles": "O=C(NCC1CCCCN1)c1c(OCC(F)(F)F)cccc1OCC(F)(F)F", "note": "(centres undefined)", "ED50": 271}
{"smiles": "O=C(NCC1CCCNC1)c1cc(OCC(F)(F)F)ccc1OCC(F)(F)F", "note": "(centres undefined)", "ED50": 82}
{"smiles": "O=C(NCC1CCCCN1)c1cccc(OCC(F)(F)F)c1OCC(F)(F)F", "note": "(centres undefined)", "ED50": 149}
{"smiles": "O=C(NCC1CCCCN1)c1cc(OCC(F)(F)F)ccc1OCC(F)(F)F", "note": "(centres undefined) [FLECAINIDE ACETATE]", "ED50": 48}
{"smiles": "CC(C)(C)N(CC1CCCCN1)C(=O)c1cc(OCC(F)(F)F)ccc1OCC(F)(F)F", "note": "(centres undefined)", "ED50": 17}
{"smiles": "O=C(NCC1NCCc2ccccc21)c1cc(OCC(F)(F)F)ccc1OCC(F)(F)F", "note": "(centres undefined)", "ED50": 380}
{"smiles": "CC(NC(=O)c1cc(OCC(F)(F)F)ccc1OCC(F)(F)F)C1CCCCN1", "note": "(centres undefined)", "ED50": 19}
{"smiles": "O=C(NCC1CCNCC1)c1cc(OCC(F)(F)F)ccc1OCC(F)(F)F", "ED50": 149}
{"smiles": "O=CN1CCCCC1CNC(=O)c1cc(OCC(F)(F)F)ccc1OCC(F)(F)F", "note": "(centres undefined)", "ED50": "> 510"}
{"smiles": "CCN(CC)CC(=O)Nc1c(C)cccc1C", "note": "[LIDOCAINE]", "ED50": 495}
